Reference: PMC2719767 (Bioorganic & medicinal chemistry, 2008)
Structures can show the parent of a compound that is named as a salt. Blank lines part the entries; values can stand above or below the compound they belong to.

Key:
[1] = target: T1, D2 receptor (Homo sapiens, UniProt P14416); conditions: cloned human D2-like receptors; ref [11]; cited from earlier work
[2] = target: T2, D4 receptor (Homo sapiens, UniProt P21917); conditions: cloned human D2-like receptors; ref [11]; cited from earlier work
T2 sequence (P21917 1-419): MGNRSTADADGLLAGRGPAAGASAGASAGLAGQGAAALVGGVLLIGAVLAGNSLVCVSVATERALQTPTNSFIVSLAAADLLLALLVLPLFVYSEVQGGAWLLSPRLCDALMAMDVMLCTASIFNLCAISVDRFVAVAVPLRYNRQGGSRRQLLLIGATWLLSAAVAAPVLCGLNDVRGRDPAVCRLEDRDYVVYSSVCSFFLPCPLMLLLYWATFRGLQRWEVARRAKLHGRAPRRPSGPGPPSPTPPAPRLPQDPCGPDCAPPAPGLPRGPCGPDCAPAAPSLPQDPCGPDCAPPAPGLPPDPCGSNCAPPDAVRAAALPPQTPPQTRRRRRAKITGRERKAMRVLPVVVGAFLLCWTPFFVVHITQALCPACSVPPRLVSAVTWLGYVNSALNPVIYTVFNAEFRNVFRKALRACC

[3] = target: T1, D2 receptor; assay: D2 receptor binding affinity, Pfizer laboratories; conditions: same assay procedure in the same laboratory
[4] = target: T2, D4 receptor; assay: D4 receptor binding affinity, Pfizer laboratories; conditions: for D2/D4: Table 2, ratio of Ki values, Pfizer laboratories data
[5] = target: T1, D2 receptor; assay: D2 receptor binding affinity, NIMH-PDSP
[6] = target: D3 receptor (Homo sapiens, UniProt P35462); assay: D3 receptor binding affinity, NIMH-PDSP
[7] = target: T2, D4 receptor; assay: D4 receptor binding affinity, NIMH-PDSP
[8] = Table 2, NIMH-PDSP data, MPA = Missed primary assay threshold of 50% inhibition

T1 sequence (P14416 whole entry): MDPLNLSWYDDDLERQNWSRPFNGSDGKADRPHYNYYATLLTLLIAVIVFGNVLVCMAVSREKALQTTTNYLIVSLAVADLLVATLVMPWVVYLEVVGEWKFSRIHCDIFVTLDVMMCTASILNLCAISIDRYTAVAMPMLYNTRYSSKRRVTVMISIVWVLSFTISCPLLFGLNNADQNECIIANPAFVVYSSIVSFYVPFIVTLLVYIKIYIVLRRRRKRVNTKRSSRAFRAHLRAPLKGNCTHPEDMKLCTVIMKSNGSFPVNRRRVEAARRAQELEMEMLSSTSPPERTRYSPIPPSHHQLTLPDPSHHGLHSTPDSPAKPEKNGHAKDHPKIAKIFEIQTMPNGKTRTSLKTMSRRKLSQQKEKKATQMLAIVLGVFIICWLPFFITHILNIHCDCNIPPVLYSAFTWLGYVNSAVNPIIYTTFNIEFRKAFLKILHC
Chain of D3 receptor (P35462 whole entry): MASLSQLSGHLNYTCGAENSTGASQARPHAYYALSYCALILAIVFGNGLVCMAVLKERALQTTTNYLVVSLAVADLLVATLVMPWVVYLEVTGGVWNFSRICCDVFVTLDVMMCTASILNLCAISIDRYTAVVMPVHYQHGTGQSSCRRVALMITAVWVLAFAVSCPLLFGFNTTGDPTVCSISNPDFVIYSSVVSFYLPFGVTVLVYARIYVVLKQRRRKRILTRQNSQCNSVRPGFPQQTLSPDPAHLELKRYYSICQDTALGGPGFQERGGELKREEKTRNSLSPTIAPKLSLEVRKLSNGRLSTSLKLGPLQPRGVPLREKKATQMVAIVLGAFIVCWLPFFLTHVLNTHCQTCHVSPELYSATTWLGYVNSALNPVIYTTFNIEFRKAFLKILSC

SMILES: O=C(CCCN1CCN(c2ccc(Cl)cc2)CC1)c1ccc(F)cc1 [Compound 1]
fold D2 potency conferred by butyrophenone (compound 1 vs L745,870) [1]: < 4 fold
D4 selectivity [2]: 15 fold

SMILES: Clc1ccc(N2C3CCC2CN(Cc2c[nH]c4ncccc24)CC3)cc1 (stereo not drawn) [Compound 9, 3-[(1H-pyrrolo[2,3-b]pyridin-3-yl)methyl]-9-(4-chlorophenyl)-3,9-diazabicyclo[4.2.1]nonane]
Ki [5]: > 10000 nM
Ki [6]: 335 ± 178 nM
D2/D4 [7]: >17
Ki [7]: 584 ± 115 nM

SMILES: O=C(CCCN1CC2CC1N(c1ccc(Cl)cc1)C2)c1ccc(F)cc1 (stereo not drawn) [Compound 10]
D2/D4 [4]: 0.33

Results, then the compound that gave them:

fold lower affinity for the D2 receptor than compound 6 [3]: 7 fold
fold lower affinity for the D4 receptor than compound 6 ([4]; same assay procedure in the same laboratory): 3 fold
SMILES: Clc1ccc(N2CCCN(Cc3c[nH]c4ncccc34)CC2)cc1 [Compound 7, 3-{[4-(4-chlorophenyl)-1,4-diazepan-1-yl]methyl}-1H-pyrrolo[2,3-b]pyridine, HCl]

Ki ± SEM, D2 [5, 8]: MPA
Ki ± SEM, D3 [6, 8]: MPA
SMILES: OC1(c2ccc(Cl)cc2)CCN(Cc2c[nH]c3ncccc23)C1 (stereo not drawn) [Compound 13, 3-(4-chlorophenyl)-1-(1H-pyrrolo[2,3-b]pyridin-3-ylmethyl)pyrrolidin-3-ol]

D2/D4 [4]: 21
SMILES: c1cnc(N2CCN(Cc3c[nH]c4ncccc34)CC2)nc1 [Compound 15, 3-{(4-(pyrimidin-2-yl)piperazin-1-yl)methyl}-1H-pyrrolo[2,3-b]pyridine]
